Test results from patent publication US20100240581A1, “SELECTIVE PROTEASOME INHIBITORS FOR TREATING DIABETES” (The Trustees of Columbia University in the City of New York, priority 2006, published 2010).
“Also recorded” adds a separate entry of the source.

Key:
[1] = system: male C57BL/6J ob/ob mice; experiment: Blood glucose in ob/ob mice on dietary curcumin; type: in vivo, mouse; settings: dietary curcumin (3%), p<0.05
[2] = system: male C57BL/Ks db/db mice; experiment: Blood glucose in db/db mice (dietary curcumin or single i.p. injection); type: in vivo, mouse; settings: for blood glucose after a single intraperitoneal injection: epoxomicin 0.1 mg/kg or celastrol 3 mg/kg i.p., male db/db mice, noted approximately 10 hours after injection; for duration of blood glucose lowering after injection: single i.p. injection
Excerpt: (§1) This translated into a daily consumption by the mice of roughly 1.0 to 1.5 g/kg/day.
Male C57BU6J mice gradually develop obesity and moderate diabetes when placed on high-fat diets, a process quite analogous to that in humans. […] However, the loss of leptin effect on the C57BL/Ks background is not compensated for by β-cell hyperplasia and hyperinsulinemia. At a very young age these mice become severely hyperglycemic, hyperphagic, and polydipsic. As they mature, they start to lose weight, develop nephropathy, and ultimately die around age 40 weeks from diabetic complications.
(§2) This effect was noted to last for at least 48 hours post-injection. Mice receiving vehicle in the celastrol and epoxomicin experiments were food entrained to the treatment group to avoid any acute effects on glucose levels from differences in food intake.

[3] = system: DIO C57BL/6J, C57BL/6J ob/ob and C57BL/Ks db/db mice; experiment: Random fed glucose and HbA1c in the three mouse models of diabetes; type: in vivo
[4] = system: male C57BL/6J DIO mice; experiment: Glucose tolerance test in DIO mice; type: in vivo, mouse; settings: dietary curcumin
Description: as §1, §2

[5] = system: male C57BL/6J ob/ob mice; experiment: Insulin tolerance test in ob/ob mice; type: in vivo, mouse; settings: dietary curcumin (3%)
Description: as §1, §2

[6] = system: male C57BL/6J ob/ob mice; experiment: Body composition (Bruker NMR), food intake and liver in ob/ob mice; type: in vivo, mouse
[7] = system: male C57BL/6J DIO mice; experiment: Body composition, food intake and liver in DIO mice; type: in vivo, mouse
[8] = system: male C57BL/Ks db/db mice; experiment: Body composition (Bruker NMR), food intake and liver in db/db mice; type: in vivo, mouse; settings: dietary curcumin (3%)
[9] = system: TNF-α, Socs-3, Ccl2 (MCP-1 gene) and Ccr2 (MCP-1 receptor gene); experiment: Quantitative real-time PCR of hepatic inflammatory genes in ob/ob mice; type: in vivo, mouse; settings: dietary curcumin, 10 weeks; male ob/ob mice
Excerpt: (§3) These included TNF-α, Socs-3, Ccl2 (MCP-1 gene) and Ccr2 (MCP-1 receptor gene).

[10] = system: NFkB p65; experiment: p65 activity assay (TransAM NFkB p65 Kit) in liver nuclear extracts of ob/ob mice; type: in vivo, mouse; settings: dietary curcumin, 10 weeks; liver nuclear extract of ob/ob mice
Excerpt: as §3

[11] = system: adiponectin (Acdc), F480 (Emr1); experiment: Quantitative real-time PCR of white adipose tissue of ob/ob mice; type: in vivo, mouse; settings: dietary curcumin, 10 weeks; male ob/ob mice
Excerpt: (§4) Given that the adipose tissue of obese subjects is chronically inflamed and secretes diabetogenic adipokines, we investigated the possibility that proteasome inhibition improves diabetes by decreasing adipose inflammation in obese diabetic mice.

[12] = Serum adiponectin in ob/ob mice; type: in vivo, mouse; settings: curcumin-treated ob/ob mice (not shown)
Excerpt: as §4

[13] = system: macrophages in adipose tissue of ob/ob mice; experiment: Adipose macrophage immunohistochemistry (F480 antibody) in ob/ob mice; type: in vivo, mouse; settings: dietary curcumin; male C57BL/6J ob/ob mice
[14] = Serum insulin in db/db mice; type: in vivo, mouse; settings: for serum insulin: single i.p. dose, celastrol 3 mg/kg or epoxomicin 0.1 mg/kg, 24 hours post injection, male C57BL/Ks db/db mice
Excerpt: (§5) As FIGS. 19 and 20 A-C reveal, untreated ob/ob mice develop pancreatic β-cell hyperplasia and hyperinsulinemia, a phenomenon that ultimately allows them to recoup normoglycemia. The pancreatic islets in untreated C57BL/Ks db/db mice however, degenerate (FIG. 20 D-F).

[15] = system: pancreatic islets of C57BL/Ks db/db mice; experiment: Immunohistology of pancreatic islets in db/db mice; type: in vivo, mouse; settings: curcumin-treated C57BL/Ks db/db mice
Excerpt: as §5

[16] = system: diabetic streptozotocin-treated rat; settings: oral curcumin therapy; preclinical studies, mostly streptozotocin-treated rat; cited from earlier work
[17] = daily doses about 0.5 to about 3.0 mg/kg/d (i.p.); cited from earlier work
[18] = system: Glucotoxic HIT-T15 β-cells; settings: cited from earlier work
[19] = system: male C57BL/Ks db/db mice; experiment: Insulin tolerance test in db/db mice; type: in vivo, mouse; settings: celastrol i.p., 24 hours after a single injection
Description: as §2

[20] = system: adiponectin (Acdc), Ccl2 (MCP-1); experiment: Gene expression in white adipose tissue of db/db mice after celastrol; type: in vivo, mouse; settings: celastrol i.p. once daily for 3 days; male db/db mice
[21] = system: rat β-cell line INS-1; experiment: INS-1 viable cell number (CellTiter-Blue Cell Viability Assay); type: cell-based; settings: INS-1 cells, 24 hours
Excerpt: To follow-up on the potential ability of proteasome inhibition to improve β-cell function, we performed experiments using the rat β-cell line Ins-1.

[22] = biological target: chymotrypsin-like activity of a purified 20S proteasome (Homo sapiens, UniProt P28074); settings: reported (ref. 83); cited from earlier work
[23] = biological target: T1, human prostate cancer cellular 26S proteasome (Homo sapiens, UniProt P28074); settings: reported (ref. 83); cited from earlier work
T1 construct: human prostate cancer cellular 26S proteasome

[24] = system: human prostrate cancer growth in nude mice; settings: tumor-bearing nude mice; 1-3 mg/kg/d (i.p.); cited from earlier work
[25] = curcumin-fed ob/ob mice vs controls (data not shown)
[26] = dietary curcumin (3%), ob/ob mice

COc1cc(/C=C/C(=O)CC(=O)/C=C/c2ccc(O)c(OC)c2)ccc1O [curcumin]
effect on hyperglycemia (blood glucose) [1]: significant protective effect against hyperglycemia
effect on hyperglycemia (blood glucose) ([2]; dietary curcumin (3%), male C57BL/Ks db/db mice, p<0.05): significant protection against hyperglycemia
HbA1c levels ([3]; 3% dietary curcumin, all mouse models of diabetes tested): significant decreases; also recorded: decreases HbA1c percentage
random fed glucose ([3]; 3% dietary curcumin, all three diabetic mice categories, as early as 2-3 weeks): significant decreases
HbA1c percentage in non-diabetic mice ([3]; dietary curcumin (3%), non-diabetic mice): not affected
AUC of glucose tolerance test [4]: improved glucose tolerance; also recorded: significantly lowers AUC of glucose
AUC of insulin tolerance test [5]: decreased area under the curve (AUC); also recorded: significantly lowers AUC of insulin tolerance test
degree of liver steatosis [6, 25]: significantly lower
liver weight [6, 25]: significantly lower
adipose mass / body fat [6, 26]: significantly less body fat; also recorded: significantly decreases
body weight [6, 26]: weighed slightly but significantly less; also recorded: significantly decreases body weight
lean body mass (NMR) [6, 26]: significantly more lean mass; also recorded: significantly increases lean body mass
body weight ([7]; 3% curcumin in food, DIO mice): weighed slightly but significantly less
liver weight ([7]; curcumin treatment, DIO mice): significantly lower; also recorded: significantly decreased
degree of liver steatosis ([7]; curcumin-fed DIO mice vs controls (data not shown)): significantly lower
body fat percentage / body fat ([7]; one month of curcumin treatment, DIO mice): significantly less body fat; also recorded: significantly decreased body fat percentage
body weight [8]: weighed more; also recorded: significantly increased
lean muscle mass (NMR) [8]: significantly more lean mass; also recorded: significantly increased lean muscle mass
hepatic expression of pro-inflammatory genes (TNF-α, Socs-3, Ccl2, Ccr2) [9]: significantly downregulated; also recorded: significantly lowers hepatic expression of pro-inflammatory genes
hepatic NF-κB activity [10]: significantly less NFkB activity; also recorded: significantly decreases hepatic NF-κB activity
F480 (Emr1) expression in white adipose tissue [11]: significantly decreased macrophage-specific Emr1 (F480) expression; also recorded: decreases F480 (Emr1) expression
adiponectin (Acdc) expression in white adipose tissue [11]: dramatically increased; also recorded: significantly increases expression of adiponectin (Acdc)
serum adiponectin levels [12]: significantly higher
adipose macrophage infiltration (F480 staining) [13]: dramatic reduction in the number of macrophages; also recorded: significant reduction of adipose macrophage infiltration
serum insulin levels ([14]; dietary curcumin, db/db mice): exhibit hyperinsulinemia; also recorded: significantly increased serum insulin levels
proliferating β-cells (nuclear Ks67 immunoreactivity) [15]: contain some proliferating β-cells
pancreatic islet morphology (hyperplasia) ([15]; age 20 weeks): islets actually become hyperplastic; also recorded: hyperplasia of the pancreatic islets
diabetes-related hyperglycemia or end-organ damage [16]: prevents, delays, or ameliorates diabetes-related hyperglycemia or end-organ damage

CC[C@H](C)[C@H](NC(=O)[C@H]([C@@H](C)CC)N(C)C(C)=O)C(=O)N[C@H](C(=O)N[C@@H](CC(C)C)C(=O)[C@@]1(C)CO1)[C@@H](C)O [epoxomicin]
blood glucose after a single intraperitoneal injection [2]: correction of hyperglycemia; also recorded: significantly lowers blood glucose
duration of blood glucose lowering after injection ([2]; male C57BL/Ks db/db mice): ~2 days
serum insulin [14]: significant increases in serum insulin; also recorded: significantly increase serum insulin
antiinflammatory activity [17]: exhibits antiinflammatory activity

CC(=O)N[C@@H](CSC(=O)[C@]1([C@@H](O)C(C)C)NC(=O)[C@H](C)[C@@H]1O)C(=O)O [lactacystin]
MafA protein [18]: caused an accumulation of MafA protein

celastrol
blood glucose after a single intraperitoneal injection [2]: correction of hyperglycemia; also recorded: significantly lowers blood glucose
duration of blood glucose lowering after injection ([2]; male C57BL/Ks db/db mice): ~2 days
AUC of ITT [19]: improved insulin tolerance; also recorded: significantly lower AUC of ITT
Ccl2 (MCP-1) expression in white adipose tissue [20]: significantly decreased adipose expression of Ccl-2; also recorded: decreasing expression of Ccl2 (MCP-1)
adiponectin (Acdc) expression in white adipose tissue [20]: significantly increased expression of adiponectin; also recorded: significantly increases expression of adiponectin (Acdc)
serum insulin [14]: significant increases in serum insulin; also recorded: significantly increase serum insulin
cell viability at highest concentrations [21]: proved cytotoxic; also recorded: negative effects on cell viability
IC50 [22]: 2.5 µM
concentration inhibiting human prostate cancer cellular 26S proteasome [23]: 1-5 μM/L
tumor growth [24]: inhibition of tumor growth
